Key:
[1] = system: rats; assay: Hyperglycemic effect of glucagon eye drops with surfactant; type: in vivo, rat; details: for blood D-glucose values after glucagon eye drops (in words): surfactant plus glucagon, rats previously treated with eye drops of same surfactant plus insulin; for Blood Glucose Concentration: glucagon eye drops with 0.5% surfactant agent added after 120 min (after insulin eye drops)
Method: Glucagon absorption from the eye was measured in rats given eye drops containing various surfactants plus glucagon (30 μg) (Eli Lilly, Indianapolis, Ind.) by monitoring an elevation in blood D-glucose levels. […] Once again, paired animals that received eye drops containing the surfactant agents only, or glucagon only, could be compared to animals receiving eye drops with surfactant agents and glucagon. […] Additionally, the use of glucagon eyedrops to treat a hypoglycemic crisis is now possible provided that an appropriate surfactant agent is included in the eye drop formulation.

[2] = system: normal rats with blood glucose elevated by xylazine/ketamine anesthesia; assay: Hypoglycemic effect of insulin eye drops with absorption enhancer in anesthetized rats; type: in vivo, rat
Method: This mimics the hyperglycemic state seen in diabetic animals and humans. The elevated levels of D-glucose that occur in response to anesthesia provide an optimal system in which to measure any systemic hypoglycemic action of insulin-containing eye drops.
Adult male Sprague-Dawley rats (250-350g) were fed ad libitum, and experiments were conducted between 10:00 a.m. and 3:00 p.m. Rats were anesthetized with a mixture of xylazine (7.5 mg/kg) and ketamine (50 mg/kg) given intraperitoneally (IP) and allowed to stabilize for 50-90 min before the administration of eye drops. […] Blood D-glucose values were measured by collecting a drop of blood from the tail vein at 5-10 min intervals throughout the experiment and applying the blood to glucometer strips (Chemstrip bG) according to directions provided with the instrument (Accu-Chek II, Boehringer Mannheim Diagnostics; Indianapolis, Ind.).
Eye drops were instilled at time 0 using a plastic disposable pipette tip with the eyes held open, and the rat was kept in a horizontal position on a warming pad (37° C.) throughout the protocol. […] Octyl β-D-maltoside, decyl-β-D-maltoside, dodecyl-β-D-maltoside, tridecyl-β-D-maltoside and tetradecyl-β-D-maltoside were obtained from Anatrace, Inc. (Maumee, Ohio).

[3] = system: rectal mucosa of rats; details: Murakami et al.; cited from earlier work
[4] = system: monocytes or endothelial cells; details: DiCorleto et al.; cited from earlier work
[5] = system: intact mouse fibrosarcoma cells; details: LeGrue et al.; cited from earlier work
[6] = system: normal rats with blood glucose elevated by xylazine/ketamine anesthesia; assay: Hypoglycemic effect of insulin nose drop with absorption enhancer; type: in vivo, rat; details: nose drop 0.2% insulin with 0.5% tetradecylmaltoside, after eye drops
Method: Adult male Sprague-Dawley rats (250-350g) were fed ad libitum, and experiments were conducted between 10:00 a.m. and 3:00 p.m. Rats were anesthetized with a mixture of xylazine (7.5 mg/kg) and ketamine (50 mg/kg) given intraperitoneally (IP) and allowed to stabilize for 50-90 min before the administration of eye drops. Anesthesia of a normal rat with xylazine/ketamine produces an elevation in blood glucose values which provides an optimal state to determine the systemic hypoglycemic action of insulin-containing eye drops. Blood D-glucose values were measured by collecting a drop of blood from the tail vein at 5-10 min intervals throughout the experiment and applying the blood to glucometer strips (Chemstrip bG) according to directions provided with the instrument (Accu-Chek II, Boehringer Mannheim Diagnostics; Indianapolis, Ind.). Blood D-glucose values ranged from 200 to 400 mg/dl in anesthetized nondiabetic rats.
Eye drops were instilled at time 0 using a plastic disposable pipette tip with the eyes held open, and the rat was kept in a horizontal position on a warming pad (37° C.) throughout the protocol. […] Octyl β-D-maltoside, decyl-β-D-maltoside, dodecyl-β-D-maltoside, tridecyl-β-D-maltoside and tetradecyl-β-D-maltoside were obtained from Anatrace, Inc. (Maumee, Ohio). […]

[7] = 0.5% enhancer with 0.2% regular porcine insulin
[8] = enhancer concentration not singled out (0.125-0.5%), with 0.2% regular porcine insulin
[9] = 0.25% enhancer with 0.2% regular porcine insulin

CCCCCCCCCCO[C@@H]1O[C@H](CO)[C@@H](O[C@H]2O[C@H](CO)[C@@H](O)[C@H](O)[C@H]2O)[C@H](O)[C@H]1O [Decyl Maltoside, decyl-β-D-maltoside]
blood D-glucose values after glucagon eye drops (in words) [1]: significantly increased | Effect as absorption enhancer on blood glucose, insulin eye drops (in words) [2, 7]: prompt and sustained fall in blood glucose levels | Effect as absorption enhancer on blood glucose, insulin eye drops (in words) [2, 8]: less

CCCCCCCCCCCCO[C@@H]1O[C@H](CO)[C@@H](O[C@H]2O[C@H](CO)[C@@H](O)[C@H](O)[C@H]2O)[C@H](O)[C@H]1O [Dodecyl Maltoside, dodecyl-β-D-maltoside]
histological change to the rectal tissue [3]: without producing any apparent histological change | promoting absorption of dextrans and carboxyfluoroscein across the rectal mucosa [3]: effective | Effect as absorption enhancer on blood glucose, insulin eye drops (in words) ([2]; 0.125% enhancer with 0.2% regular porcine insulin): ineffective | Effect as absorption enhancer on blood glucose, insulin eye drops (in words) [2, 9]: smaller and more transient effect | Effect as absorption enhancer on blood glucose, insulin eye drops (in words) ([2]; 0.375% enhancer with 0.2% regular porcine insulin): equally effective | Effect as absorption enhancer on blood glucose, insulin eye drops (in words) ([2]; 0.5% enhancer with 0.2% regular porcine insulin, listed as dodecyl-β-D-maltoside): prompt and sustained fall in blood glucose levels | Effect as absorption enhancer on blood glucose, insulin eye drops (in words) ([2]; 0.5% enhancer with 0.2% regular porcine insulin, listed as dodecylmaltoside): equally effective

CCCCCCCCO[C@@H]1O[C@H](CO)[C@@H](O)[C@H](O)[C@H]1O [Octylglucoside, octyl β-D-glucoside]
viability or morphology of monocytes or endothelial cells [4]: no effect | cytolysis of intact mouse fibrosarcoma cells [5]: non-cytolytic

CCCCCCCCCCCCCCO[C@@H]1O[C@H](CO)[C@@H](O[C@H]2O[C@H](CO)[C@@H](O)[C@H](O)[C@H]2O)[C@H](O)[C@H]1O [Tetradecyl Maltoside, tetradecyl-β-D-maltoside]
blood glucose levels after nose drop (in words) [6]: further decreased | Effect as absorption enhancer on blood glucose, insulin eye drops (in words) ([2]; 0.125% enhancer with 0.2% regular porcine insulin, listed as tetradecyl maltoside): effective | Effect as absorption enhancer on blood glucose, insulin eye drops (in words) ([2]; 0.125% enhancer with 0.2% regular porcine insulin, listed as tetradecylmaltoside): prompt and prominent drop in blood glucose levels | Effect as absorption enhancer on blood glucose, insulin eye drops (in words) [2, 7]: effective

CCCCCCCCCCCCCOC1OC(CO)C(OC2OC(CO)C(O)C(O)C2O)C(O)C1O [Tridecyl Maltoside, tridecyl-β-D-maltoside]
Blood Glucose Concentration ([1]; time 130 min): 82 mg/dL | Blood Glucose Concentration ([1]; time 140 min): 121 mg/dL | Blood Glucose Concentration ([1]; time 150 min): 148 mg/dL | Blood Glucose Concentration ([1]; time 160 min): 173 mg/dL | Blood Glucose Concentration ([1]; time 170 min): 162 mg/dL | Blood Glucose Concentration ([1]; time 180 min): 162 mg/dL | Blood Glucose Concentration ([1]; time 190 min): 156 mg/dL | blood D-glucose values after glucagon eye drops (in words) [1]: significantly increased | Effect as absorption enhancer on blood glucose, insulin eye drops (in words) [2, 9]: sustained for the two hour time course of the experiment | Effect as absorption enhancer on blood glucose, insulin eye drops (in words) [2, 7]: effective | Blood Glucose Concentration ([2]; 0.5% surfactant agent, time -10 min, before insulin eye drops): 307 mg/dL | Blood Glucose Concentration ([2]; 0.5% surfactant agent, time -20 min, before insulin eye drops): 255 mg/dL | Effect as absorption enhancer on blood glucose, insulin eye drops (in words) [2, 8]: dose-dependent effect | Blood Glucose Concentration ([2]; insulin eye drops with 0.5% surfactant agent, time 0 min): 323 mg/dL | Blood Glucose Concentration ([2]; insulin eye drops with 0.5% surfactant agent, time 10 min): 309 mg/dL | Blood Glucose Concentration ([2]; insulin eye drops with 0.5% surfactant agent, time 20 min): 217 mg/dL | Blood Glucose Concentration ([2]; insulin eye drops with 0.5% surfactant agent, time 30 min): 131 mg/dL | Blood Glucose Concentration ([2]; insulin eye drops with 0.5% surfactant agent, time 40 min): 100 mg/dL | Blood Glucose Concentration ([2]; insulin eye drops with 0.5% surfactant agent, time 50 min): 87 mg/dL | Blood Glucose Concentration ([2]; insulin eye drops with 0.5% surfactant agent, time 60 min): 107 mg/dL | Blood Glucose Concentration ([2]; insulin eye drops with 0.5% surfactant agent, time 70 min): 115 mg/dL | Blood Glucose Concentration ([2]; insulin eye drops with 0.5% surfactant agent, time 80 min): 79 mg/dL | Blood Glucose Concentration ([2]; insulin eye drops with 0.5% surfactant agent, time 90 min): 85 mg/dL | Blood Glucose Concentration ([2]; insulin eye drops with 0.5% surfactant agent, time 100 min): 76 mg/dL | Blood Glucose Concentration ([2]; insulin eye drops with 0.5% surfactant agent, time 110 min): 74 mg/dL | Blood Glucose Concentration ([2]; insulin eye drops with 0.5% surfactant agent, time 120 min): 75 mg/dL

CCCCCCCOC1O[C@H](CO)[C@@H](O)[C@H](O)[C@H]1O (stereo partly drawn) [heptylglucoside, heptylglucopyranoside]
Effect as absorption enhancer on blood glucose, insulin eye drops (in words) [2, 7]: ineffective

CCCCCCOC1O[C@H](CO)[C@@H](O)[C@H](O)[C@H]1O (stereo partly drawn) [hexylglucoside, Hexylglucopyranoside]
Effect as absorption enhancer on blood glucose, insulin eye drops (in words) [2, 7]: ineffective

CCCCCCCCCOC1O[C@H](CO)[C@@H](O)[C@H](O)[C@H]1O (stereo partly drawn) [nonylglucoside, nonylglucopyranoside]
Effect as absorption enhancer on blood glucose, insulin eye drops (in words) [2, 7]: effectively stimulated insulin absorption | blood glucose levels ([2]; insulin eye drops with 0.5% nonylglucoside, initial value (from)): 297 mg/dL | blood glucose levels ([2]; insulin eye drops with 0.5% nonylglucoside, reduced value (to)): 150 mg/dL

CCCCCCCCO[C@@H]1O[C@H](CO)[C@@H](O[C@H]2O[C@H](CO)[C@@H](O)[C@H](O)[C@H]2O)[C@H](O)[C@H]1O [octylmaltoside, Octyl β-D-maltoside]
Effect as absorption enhancer on blood glucose, insulin eye drops (in words) [2, 8]: no

decylsucrose
Effect as absorption enhancer on blood glucose, insulin eye drops (in words) [2, 7]: effective in reducing blood glucose levels | blood glucose levels ([2]; insulin eye drops with 0.5% decylsucrose, time 0 min): 313 mg/dL | blood glucose levels ([2]; insulin eye drops with 0.5% decylsucrose, time 120 min): 164 mg/dL

dodecylsucrose [Dodecyl Sucrose]
blood D-glucose values after glucagon eye drops (in words) [1]: significantly increased | blood glucose levels ([2]; insulin eye drops with 0.125% dodecylsucrose, time 0 min): 335 mg/dL | blood glucose levels ([2]; insulin eye drops with 0.125% dodecylsucrose, time 120 min): 150 mg/dL

Reference: US5661130A, “Absorption enhancers for drug administration” (The UAB Research Foundation, priority 1993, dated 1997)
